The source of these data is patent publication US7803992B2, “Methods and compositions for expressing an herbicide-tolerant polynucleotide” (Pioneer Hi-Bred International, Inc., priority 2005, dated 2010).

Molecules are shown by their SMILES.

Common to all, as to type: in vivo
For assay [1], the system named is Heterozygous GAT-HRA corn. Description: Postemergence herbicide application in greenhouse: fresh shoot weight and visual injury. The conditions noted are these: for Fresh Weight: weighed 2 weeks after treatment, untreated 98.8 g; for pest or weed control at 200 g/ha: Zea mays, post-emergence, read-out: % Visual Injury.
For assay [2], the system named is Heterozygous GAT-HRA corn. Description: Preemergence herbicide application in greenhouse: fresh shoot weight and visual injury. The conditions noted are these: for Fresh Weight: fresh shoots weighed 4 weeks after treatment, untreated 47.0 g; for pest or weed control at 200 g/ha: Zea mays, pre-emergence, 672 h, read-out: % Visual Injury.
Assay [3] deals with parent elite stiff stalk inbred corn. In words: Postemergence herbicide application in greenhouse: fresh shoot weight and visual injury. Particulars: for Fresh Weight: weighed 2 weeks after treatment, untreated 76.4 g; for pest or weed control at 200 g/ha: Zea mays, post-emergence, read-out: % Visual Injury.
Assay [4] has the same test system. Description: Preemergence herbicide application in greenhouse: fresh shoot weight and visual injury. The conditions noted are these: for Fresh Weight: fresh shoots weighed 4 weeks after treatment, untreated 36.7 g; for pest or weed control at 200 g/ha: Zea mays, pre-emergence, 672 h, read-out: % Visual Injury.
Setting [5] is: postemergence, 200 g/ha (glyphosate 3472 g ae/ha, glufosinate ammonium 1870 g/ha), 0% no injury, 100% plant death, mean of four replications.
[6] abbreviates: postemergence, 200 g/ha (glyphosate 3472 g ae/ha, glufosinate ammonium 1870 g/ha), mean of four replications.
Setting [7] is: preemergence, 200 g/ha, 0% no injury, 100% plant death, mean of four replications.
Setting [8] is: preemergence, 200 g/ha, mean of four replications.

On to `CCCOc1nn(C(=O)NS(=O)(=O)c2ccccc2C(=O)OC)c(=O)n1C` [Propoxycarbazone Na^+, Propoxycarbazone], for which the “% Visual Injury” value in assay [1] (setting [5]) turned out to be 9%; in assay [2] (setting [7]), 100%; in assay [3] (setting [5]) it was 100%; in assay [4] (setting [7]), 100%. Further, the “Fresh Weight” value turned out to be 101.2 g in assay [1] (setting [6]), 46.7 g in assay [2] (setting [8]), 1.9 g in assay [3] (setting [6]) and 0.6 g in assay [4] (setting [8]).
`COc1nc(C)nc(NC(=O)NS(=O)(=O)c2ccccc2CCC(F)(F)F)n1` [Prosulfuron]: the pest or weed control at 200 g/ha was found to be 29% in assay [1] (setting [5]), 9% in assay [2] (setting [7]), 25% in assay [3] (setting [5]) and 68% in assay [4] (setting [7]). Besides, the “Fresh Weight” value is listed as 91.3 g in assay [1] (setting [6]), 43.3 g in assay [2] (setting [8]), 53.6 g in assay [3] (setting [6]) and 20.9 g in assay [4] (setting [8]).
Take `CO/N=C(/C)c1cccc(Oc2nc(OC)cc(OC)n2)c1C(=O)OC` [Pyriminobac-methyl]: the pest or weed control at 200 g/ha in assay [1] ([…]) stood at 4%; in assay [2] it was 20%; in assay [3] ([…]), 93%; in assay [4] it was 83%. The “Fresh Weight” value turned out to be 95.2 g in assay [1] (setting [6]), 39.9 g in assay [2] (setting [8]), 7.6 g in assay [3] (setting [6]) and 30.4 g in assay [4] (setting [8]).
Take `COc1cc(OC)nc(Sc2cccc(Cl)c2C(=O)[O-])n1.[Na+]` [Pyrithiobac Na^+, Pyrithiobac]: the “% Visual Injury” value in assay [1] (setting [5]) amounted to 9%; in assay [2] (setting [7]), 0%; in assay [3] (setting [5]), 100%; in assay [4] (setting [7]) it was 100%. The “Fresh Weight” value in assay [1] (setting [6]) is 87.9 g; in assay [2] (setting [8]), 48.6 g; in assay [3] (setting [6]), 2.8 g; in assay [4] (setting [8]), 0.0 g.
In the case of `COC(=O)c1ccccc1S(=O)(=O)NC(=O)Nc1nc(C)cc(C)n1` [Sulfometuron-methyl], the pest or weed control at 200 g/ha is 2% in assay [1] ([…]), 6% in assay [2], 100% in assay [3] ([…]) and 100% in assay [4]. Besides, the “Fresh Weight” value in assay [1] (setting [6]) amounted to 104.5 g; in assay [2] (setting [8]), 47.3 g; in assay [3] (setting [6]), 2.0 g; in assay [4] (setting [8]), 0.0 g.
For the molecule `CCS(=O)(=O)c1nc2ccccn2c1S(=O)(=O)NC(=O)Nc1nc(OC)cc(OC)n1` [Sulfosulfuron], the pest or weed control at 200 g/ha in assay [1] (setting [5]) came to 3%; in assay [2] (setting [7]), 18%; in assay [3] (setting [5]) it was 97%; in assay [4] (setting [7]) it was 100%. Besides, the “Fresh Weight” value came to 105.5 g in assay [1] (setting [6]), 50.6 g in assay [2] (setting [8]), 4.0 g in assay [3] (setting [6]) and 1.0 g in assay [4] (setting [8]).
As to `COC(=O)c1sccc1S(=O)(=O)NC(=O)Nc1nc(C)nc(OC)n1` [Thifensulfuron-methyl], the pest or weed control at 200 g/ha in assay [1] (setting [5]) was 10%; in assay [2] (setting [7]), 3%; in assay [3] (setting [5]), 98%; in assay [4] (setting [7]) it was 88%. The “Fresh Weight” value in assay [1] (setting [6]) came out at 86.6 g; in assay [2] (setting [8]), 36.0 g; in assay [3] (setting [6]), 4.2 g; in assay [4] (setting [8]), 15.2 g.
As for `COc1nc(C)nc(NC(=O)NS(=O)(=O)c2ccccc2OCCCl)n1` [Triasulfuron], the pest or weed control at 200 g/ha in assay [1] (setting [5]) worked out at 6%; in assay [2] (setting [7]), 12%; in assay [3] (setting [5]) it was 97%; in assay [4] (setting [7]), 89%. In addition, the “Fresh Weight” value in assay [1] (setting [6]) was found to be 90.3 g; in assay [2] (setting [8]) it was 47.7 g; in assay [3] (setting [6]), 6.4 g; in assay [4] (setting [8]), 14.1 g.
